Measurements published in article PMC6430017, “Structural and chemical insights into the covalent-allosteric inhibition of the protein kinase Akt” (Chemical Science, 2019).

Assays:
Test in all cases: SelectScreen Z'LYTE kinase profiling
Format in all cases: biochemical
Conditions in all cases: ATP at apparent KM
KIT = KIT (Homo sapiens, UniProt P10721)
Description: (§1) protein kinases at a compound concentration of 1 µM. Measurements were performed in duplicates
(§2) and at the particular apparent ATP KM of each individual kinase employing the activity based Z’LYTE®
(§3) kinase assay of the SelectScreen® Kinase Profiling Services (ThermoFisher Scientific).
(§4) kinases at a compound concentration of 1 µM. Measurements were performed in duplicates and at
(§5) the particular apparent ATP KM of each individual kinase employing the activity based Z’LYTE® kinase
(§6) assay of the SelectScreen® Kinase Profiling Services (ThermoFisher Scientific).

CHEK2 (CHK2) = CHEK2 (CHK2) (Homo sapiens, UniProt O96017)
Description: as §1, §2, §3, §4, §5, §6

MAPKAPK2 = MAPKAPK2 (Homo sapiens, UniProt P49137)
Description: as §1, §2, §3, §4, §5, §6

TXK = biological target: T1, TXK (Homo sapiens, UniProt P42681)
T1 sequence (P42681 1-527): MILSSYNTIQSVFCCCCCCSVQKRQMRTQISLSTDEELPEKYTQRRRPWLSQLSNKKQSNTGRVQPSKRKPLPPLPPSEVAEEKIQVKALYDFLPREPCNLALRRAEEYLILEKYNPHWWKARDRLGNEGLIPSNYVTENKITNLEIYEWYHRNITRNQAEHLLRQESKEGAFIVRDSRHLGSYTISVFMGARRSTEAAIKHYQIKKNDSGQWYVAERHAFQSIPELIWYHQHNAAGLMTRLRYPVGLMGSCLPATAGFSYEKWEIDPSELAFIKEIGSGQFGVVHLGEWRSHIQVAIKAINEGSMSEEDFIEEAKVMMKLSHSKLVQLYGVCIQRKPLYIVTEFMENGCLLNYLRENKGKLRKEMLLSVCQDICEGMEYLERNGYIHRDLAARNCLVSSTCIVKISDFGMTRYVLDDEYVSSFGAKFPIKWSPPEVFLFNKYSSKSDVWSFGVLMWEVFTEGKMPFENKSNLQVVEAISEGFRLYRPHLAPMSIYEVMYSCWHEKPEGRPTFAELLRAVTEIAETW
Description: as §1, §2, §3, §4, §5, §6

MARK2 = MARK2 (Homo sapiens, UniProt Q7KZI7)
Chain of MARK2 (Q7KZI7 whole entry): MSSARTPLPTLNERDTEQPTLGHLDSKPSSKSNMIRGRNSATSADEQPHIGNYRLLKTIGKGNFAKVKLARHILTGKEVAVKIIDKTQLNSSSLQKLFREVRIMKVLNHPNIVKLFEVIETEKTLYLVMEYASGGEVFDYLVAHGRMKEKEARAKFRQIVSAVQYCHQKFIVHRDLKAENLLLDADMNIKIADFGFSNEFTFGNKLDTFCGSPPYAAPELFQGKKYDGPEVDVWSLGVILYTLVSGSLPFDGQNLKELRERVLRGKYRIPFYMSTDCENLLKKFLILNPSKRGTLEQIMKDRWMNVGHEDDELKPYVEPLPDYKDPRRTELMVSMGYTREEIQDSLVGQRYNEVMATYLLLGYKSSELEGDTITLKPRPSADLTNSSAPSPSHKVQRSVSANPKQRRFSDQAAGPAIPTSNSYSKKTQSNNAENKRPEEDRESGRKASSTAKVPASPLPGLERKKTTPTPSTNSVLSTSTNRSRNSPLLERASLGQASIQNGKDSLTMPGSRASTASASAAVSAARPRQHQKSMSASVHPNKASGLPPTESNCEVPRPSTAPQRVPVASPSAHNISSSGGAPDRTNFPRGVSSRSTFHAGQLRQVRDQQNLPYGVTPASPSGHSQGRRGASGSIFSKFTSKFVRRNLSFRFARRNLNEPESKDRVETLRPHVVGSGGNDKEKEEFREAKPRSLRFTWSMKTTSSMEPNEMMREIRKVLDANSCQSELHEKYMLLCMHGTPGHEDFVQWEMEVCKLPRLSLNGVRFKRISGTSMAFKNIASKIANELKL
Description: as §1, §2, §3, §4, §5, §6

TEK (Tie2) = TEK (Tie2) (Homo sapiens, UniProt Q02763)
Chain of TEK (Tie2) (Q02763 23-1124): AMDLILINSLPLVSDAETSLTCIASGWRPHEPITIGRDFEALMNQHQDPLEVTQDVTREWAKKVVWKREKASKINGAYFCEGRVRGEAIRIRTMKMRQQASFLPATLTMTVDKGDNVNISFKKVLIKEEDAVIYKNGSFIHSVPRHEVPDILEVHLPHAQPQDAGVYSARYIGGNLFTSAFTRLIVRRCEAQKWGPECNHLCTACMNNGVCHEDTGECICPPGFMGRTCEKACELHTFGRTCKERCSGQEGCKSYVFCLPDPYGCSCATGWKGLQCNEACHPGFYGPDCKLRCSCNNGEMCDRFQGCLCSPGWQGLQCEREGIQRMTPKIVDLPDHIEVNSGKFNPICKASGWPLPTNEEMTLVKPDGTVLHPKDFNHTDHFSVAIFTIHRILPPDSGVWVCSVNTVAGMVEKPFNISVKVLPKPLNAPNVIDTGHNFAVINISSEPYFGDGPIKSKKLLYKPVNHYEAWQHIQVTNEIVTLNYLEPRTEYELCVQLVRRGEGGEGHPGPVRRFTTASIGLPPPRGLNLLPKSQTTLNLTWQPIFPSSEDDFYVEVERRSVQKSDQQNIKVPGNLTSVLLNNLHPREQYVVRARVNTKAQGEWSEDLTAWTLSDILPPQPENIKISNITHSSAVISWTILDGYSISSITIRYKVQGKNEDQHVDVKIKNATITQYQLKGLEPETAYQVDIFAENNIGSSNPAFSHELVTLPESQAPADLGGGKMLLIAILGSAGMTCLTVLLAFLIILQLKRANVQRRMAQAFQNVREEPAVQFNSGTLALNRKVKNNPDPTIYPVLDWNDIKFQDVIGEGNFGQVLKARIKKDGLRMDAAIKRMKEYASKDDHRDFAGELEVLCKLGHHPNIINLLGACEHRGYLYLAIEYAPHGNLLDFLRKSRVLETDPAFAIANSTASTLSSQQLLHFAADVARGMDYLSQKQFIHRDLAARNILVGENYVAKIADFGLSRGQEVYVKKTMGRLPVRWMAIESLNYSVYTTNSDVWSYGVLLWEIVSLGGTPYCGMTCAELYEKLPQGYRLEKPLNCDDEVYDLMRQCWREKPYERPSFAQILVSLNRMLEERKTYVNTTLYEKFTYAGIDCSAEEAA
Description: as §1, §2, §3, §4, §5, §6

LCK = LCK (Homo sapiens, UniProt P06239)
Chain of LCK (P06239 whole entry): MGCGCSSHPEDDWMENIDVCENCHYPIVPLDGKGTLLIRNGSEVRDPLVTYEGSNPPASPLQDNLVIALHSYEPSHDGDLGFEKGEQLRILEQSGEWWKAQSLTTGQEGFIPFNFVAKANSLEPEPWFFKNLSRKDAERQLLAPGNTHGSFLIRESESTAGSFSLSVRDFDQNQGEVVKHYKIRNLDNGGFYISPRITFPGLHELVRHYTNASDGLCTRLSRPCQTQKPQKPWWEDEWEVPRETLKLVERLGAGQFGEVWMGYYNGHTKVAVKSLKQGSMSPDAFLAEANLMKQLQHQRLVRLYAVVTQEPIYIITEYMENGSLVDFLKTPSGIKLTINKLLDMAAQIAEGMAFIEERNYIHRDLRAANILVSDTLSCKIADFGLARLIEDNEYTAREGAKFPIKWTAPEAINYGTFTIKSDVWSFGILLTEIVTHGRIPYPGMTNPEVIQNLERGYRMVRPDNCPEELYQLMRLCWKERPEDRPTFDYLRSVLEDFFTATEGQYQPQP
Description: as §1, §2, §3, §4, §5, §6

PRKG2 (PKG2) = biological target: T2, PRKG2 (PKG2) (Homo sapiens, UniProt Q13237)
T2 sequence (Q13237 1-762): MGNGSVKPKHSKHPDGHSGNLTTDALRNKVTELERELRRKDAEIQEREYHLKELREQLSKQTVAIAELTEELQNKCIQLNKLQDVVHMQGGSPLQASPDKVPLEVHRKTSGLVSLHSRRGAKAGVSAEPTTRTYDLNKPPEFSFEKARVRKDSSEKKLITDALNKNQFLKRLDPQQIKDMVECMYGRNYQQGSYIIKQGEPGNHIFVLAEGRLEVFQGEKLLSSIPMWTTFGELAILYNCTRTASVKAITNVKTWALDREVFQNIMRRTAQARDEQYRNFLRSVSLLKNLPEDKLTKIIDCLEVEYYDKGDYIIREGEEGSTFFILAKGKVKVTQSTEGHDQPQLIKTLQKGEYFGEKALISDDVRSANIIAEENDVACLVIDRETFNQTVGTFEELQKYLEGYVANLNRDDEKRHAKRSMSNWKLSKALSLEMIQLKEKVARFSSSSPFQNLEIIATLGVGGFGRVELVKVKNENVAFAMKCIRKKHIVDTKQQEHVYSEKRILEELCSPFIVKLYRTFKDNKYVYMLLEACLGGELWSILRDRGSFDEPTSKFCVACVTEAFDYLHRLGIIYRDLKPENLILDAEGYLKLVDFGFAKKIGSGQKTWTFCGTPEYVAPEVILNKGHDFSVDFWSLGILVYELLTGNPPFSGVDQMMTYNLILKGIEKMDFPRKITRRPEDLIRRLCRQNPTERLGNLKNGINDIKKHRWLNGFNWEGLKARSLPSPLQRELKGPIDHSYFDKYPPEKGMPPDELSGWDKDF
Description: as §1, §2, §3, §4, §5, §6

PRKCI (PKC iota) = biological target: T3, PRKCI (PKC iota) (Homo sapiens, UniProt P41743)
T3 sequence (P41743 1-596): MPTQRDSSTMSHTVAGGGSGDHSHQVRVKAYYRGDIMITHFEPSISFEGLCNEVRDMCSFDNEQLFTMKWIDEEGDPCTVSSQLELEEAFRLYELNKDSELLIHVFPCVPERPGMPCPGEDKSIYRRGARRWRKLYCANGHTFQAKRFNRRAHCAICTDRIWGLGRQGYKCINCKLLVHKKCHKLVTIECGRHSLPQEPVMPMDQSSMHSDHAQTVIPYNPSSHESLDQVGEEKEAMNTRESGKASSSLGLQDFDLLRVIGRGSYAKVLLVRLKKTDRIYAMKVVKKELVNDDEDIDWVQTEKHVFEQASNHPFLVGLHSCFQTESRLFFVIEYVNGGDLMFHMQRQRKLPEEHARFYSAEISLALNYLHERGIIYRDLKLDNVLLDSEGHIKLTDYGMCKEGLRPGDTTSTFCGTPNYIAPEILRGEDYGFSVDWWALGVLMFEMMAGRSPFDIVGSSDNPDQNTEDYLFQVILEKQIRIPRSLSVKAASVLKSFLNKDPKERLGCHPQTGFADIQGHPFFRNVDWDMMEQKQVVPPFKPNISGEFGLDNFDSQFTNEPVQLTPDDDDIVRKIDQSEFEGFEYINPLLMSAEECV
Description: as §1, §2, §3, §4, §5, §6

GRK7 = biological target: T4, GRK7 (Homo sapiens, UniProt Q8WTQ7)
T4 sequence (Q8WTQ7 1-553): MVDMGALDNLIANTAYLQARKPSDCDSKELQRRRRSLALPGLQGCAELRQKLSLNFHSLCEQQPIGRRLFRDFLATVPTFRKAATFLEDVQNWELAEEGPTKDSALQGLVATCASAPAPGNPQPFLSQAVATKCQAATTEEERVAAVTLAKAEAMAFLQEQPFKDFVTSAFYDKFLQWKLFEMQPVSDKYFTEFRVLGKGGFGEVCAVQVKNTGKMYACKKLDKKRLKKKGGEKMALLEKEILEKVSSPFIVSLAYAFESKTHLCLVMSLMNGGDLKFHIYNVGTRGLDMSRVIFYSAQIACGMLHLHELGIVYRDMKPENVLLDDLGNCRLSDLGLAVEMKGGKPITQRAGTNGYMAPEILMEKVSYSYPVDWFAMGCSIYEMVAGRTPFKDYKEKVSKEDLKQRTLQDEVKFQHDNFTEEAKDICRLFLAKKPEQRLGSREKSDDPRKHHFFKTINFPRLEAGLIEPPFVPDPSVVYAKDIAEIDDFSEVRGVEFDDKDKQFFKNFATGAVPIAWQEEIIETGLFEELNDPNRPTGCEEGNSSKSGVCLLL
Description: as §1, §2, §3, §4, §5, §6

CDK1/cyclin B = CDK1/cyclin B (Homo sapiens, UniProt P06493)
Chain of CDK1/cyclin B (P06493 whole entry): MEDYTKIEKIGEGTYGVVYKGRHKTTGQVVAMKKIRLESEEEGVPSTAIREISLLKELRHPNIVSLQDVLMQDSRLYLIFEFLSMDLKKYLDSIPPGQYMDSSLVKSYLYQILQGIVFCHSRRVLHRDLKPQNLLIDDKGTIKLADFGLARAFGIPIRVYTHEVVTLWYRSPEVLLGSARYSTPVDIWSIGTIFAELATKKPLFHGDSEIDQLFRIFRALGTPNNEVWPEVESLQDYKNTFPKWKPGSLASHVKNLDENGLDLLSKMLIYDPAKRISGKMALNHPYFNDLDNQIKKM
Chain of CDK1/cyclin B (P14635 whole entry partner): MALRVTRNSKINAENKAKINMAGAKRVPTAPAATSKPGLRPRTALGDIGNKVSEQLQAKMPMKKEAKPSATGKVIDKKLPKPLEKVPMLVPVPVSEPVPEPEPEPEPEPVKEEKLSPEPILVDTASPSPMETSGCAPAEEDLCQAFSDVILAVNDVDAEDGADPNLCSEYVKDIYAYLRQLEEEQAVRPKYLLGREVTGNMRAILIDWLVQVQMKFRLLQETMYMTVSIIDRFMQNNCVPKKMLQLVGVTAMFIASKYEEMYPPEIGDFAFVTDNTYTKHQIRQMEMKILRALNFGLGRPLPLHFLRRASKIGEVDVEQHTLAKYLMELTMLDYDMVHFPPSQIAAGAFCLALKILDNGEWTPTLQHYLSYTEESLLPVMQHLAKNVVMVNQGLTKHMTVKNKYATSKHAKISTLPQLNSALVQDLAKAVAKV
Description: as §1, §2, §3, §4, §5, §6

PRKCH (PKC eta) = PRKCH (PKC eta) (Homo sapiens, UniProt P24723)
Description: as §1, §2, §3, §4, §5, §6

Chain of KIT (P10721 26-976): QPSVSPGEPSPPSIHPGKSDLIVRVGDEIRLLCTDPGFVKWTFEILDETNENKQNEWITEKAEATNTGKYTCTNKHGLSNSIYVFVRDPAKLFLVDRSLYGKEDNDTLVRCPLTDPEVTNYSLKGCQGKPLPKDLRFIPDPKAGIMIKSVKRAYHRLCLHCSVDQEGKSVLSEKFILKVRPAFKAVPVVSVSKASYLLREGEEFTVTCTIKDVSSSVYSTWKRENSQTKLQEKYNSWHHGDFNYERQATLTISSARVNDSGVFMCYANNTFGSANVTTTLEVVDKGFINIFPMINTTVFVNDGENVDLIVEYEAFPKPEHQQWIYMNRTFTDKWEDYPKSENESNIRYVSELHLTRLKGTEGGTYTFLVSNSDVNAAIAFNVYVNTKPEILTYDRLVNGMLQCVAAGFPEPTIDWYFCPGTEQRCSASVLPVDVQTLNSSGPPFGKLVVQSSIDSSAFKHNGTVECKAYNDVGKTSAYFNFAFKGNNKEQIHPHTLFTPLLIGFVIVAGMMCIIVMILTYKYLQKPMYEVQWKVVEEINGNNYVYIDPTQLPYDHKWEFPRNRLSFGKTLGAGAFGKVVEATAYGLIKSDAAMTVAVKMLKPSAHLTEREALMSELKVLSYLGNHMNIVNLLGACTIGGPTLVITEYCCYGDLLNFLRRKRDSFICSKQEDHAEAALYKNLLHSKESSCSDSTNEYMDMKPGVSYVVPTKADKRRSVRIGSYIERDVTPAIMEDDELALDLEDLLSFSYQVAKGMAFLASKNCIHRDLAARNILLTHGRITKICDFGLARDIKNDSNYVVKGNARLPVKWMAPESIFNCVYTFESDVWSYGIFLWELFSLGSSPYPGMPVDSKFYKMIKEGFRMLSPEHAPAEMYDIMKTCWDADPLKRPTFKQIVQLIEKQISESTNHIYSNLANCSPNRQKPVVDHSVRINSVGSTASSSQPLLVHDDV
Chain of MAPKAPK2 (P49137 whole entry): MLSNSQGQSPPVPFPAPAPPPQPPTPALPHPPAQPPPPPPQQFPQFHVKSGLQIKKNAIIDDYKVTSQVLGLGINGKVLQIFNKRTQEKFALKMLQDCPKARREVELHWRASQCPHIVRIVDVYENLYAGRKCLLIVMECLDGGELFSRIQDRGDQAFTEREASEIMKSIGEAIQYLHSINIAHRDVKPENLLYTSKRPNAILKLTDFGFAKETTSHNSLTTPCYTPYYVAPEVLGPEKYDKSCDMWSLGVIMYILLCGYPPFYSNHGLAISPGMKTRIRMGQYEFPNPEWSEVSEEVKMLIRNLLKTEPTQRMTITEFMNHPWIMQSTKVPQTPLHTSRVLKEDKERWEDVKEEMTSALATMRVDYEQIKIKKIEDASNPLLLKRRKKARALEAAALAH
Chain of CHEK2 (CHK2) (O96017 whole entry): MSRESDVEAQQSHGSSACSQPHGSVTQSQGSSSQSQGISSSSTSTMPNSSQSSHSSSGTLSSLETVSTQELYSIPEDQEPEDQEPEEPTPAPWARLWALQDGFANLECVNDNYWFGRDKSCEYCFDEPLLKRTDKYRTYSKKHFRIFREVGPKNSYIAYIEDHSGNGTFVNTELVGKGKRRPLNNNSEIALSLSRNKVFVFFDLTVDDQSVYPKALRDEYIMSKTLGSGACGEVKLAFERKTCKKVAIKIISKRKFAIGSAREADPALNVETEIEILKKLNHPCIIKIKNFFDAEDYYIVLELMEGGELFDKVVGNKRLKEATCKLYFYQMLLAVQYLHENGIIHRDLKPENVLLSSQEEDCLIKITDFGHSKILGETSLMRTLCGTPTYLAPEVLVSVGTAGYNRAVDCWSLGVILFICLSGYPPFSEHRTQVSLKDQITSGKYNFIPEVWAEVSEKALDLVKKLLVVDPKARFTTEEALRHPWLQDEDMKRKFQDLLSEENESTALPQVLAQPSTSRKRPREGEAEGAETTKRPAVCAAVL

With C=CC(=O)Nc1cccc(C(=O)NC2CCN(Cc3ccc(-c4nc5cc[nH]c(=O)c5cc4-c4ccccc4)cc3)CC2)c1 [30b] the inhibition at 1 µM (KIT) was 9%, the inhibition at 1 µM (CHEK2 (CHK2)) was -12% and the inhibition at 1 µM (MAPKAPK2) was 31%. It also gave an inhibition at 1 µM (TXK) of 2%, an inhibition at 1 µM (MARK2) of 4% and an inhibition at 1 µM (TEK (Tie2)) of 6%. The inhibition at 1 µM (LCK) was 8%, the inhibition at 1 µM (PRKG2 (PKG2)) was 5% and the inhibition at 1 µM (PRKCI (PKC iota)) was -9%. For the same compound, the inhibition at 1 µM (GRK7) was 5%, the inhibition at 1 µM (CDK1/cyclin B) was 3% and the inhibition at 1 µM (PRKCH (PKC eta)) was 14%.

C=CC(=O)Nc1ccc2c(c1)n(C1CCN(Cc3ccc(-c4nc5cc[nH]c(=O)c5cc4-c4ccccc4)cc3)CC1)c(=O)n2C [24b] gave an inhibition at 1 µM (KIT) of 6%, an inhibition at 1 µM (CHEK2 (CHK2)) of -13% and an inhibition at 1 µM (MAPKAPK2) of 29%. It also gave an inhibition at 1 µM (TXK) of -5%, an inhibition at 1 µM (MARK2) of 4% and an inhibition at 1 µM (TEK (Tie2)) of 2%. For the same compound, the inhibition at 1 µM (LCK) was -3%, the inhibition at 1 µM (PRKG2 (PKG2)) was -4% and the inhibition at 1 µM (PRKCI (PKC iota)) was 3%. The inhibition at 1 µM (GRK7) was -4%, the inhibition at 1 µM (CDK1/cyclin B) was 3% and the inhibition at 1 µM (PRKCH (PKC eta)) was 7%.

With C=CC(=O)Nc1cc(NC(=O)NC2CCN(Cc3ccc(-c4nc5cc[nH]c(=O)c5cc4-c4ccccc4)cc3)CC2)ccc1Cl [compound 27] the inhibition at 1 µM (KIT) was 9%, the inhibition at 1 µM (CHEK2 (CHK2)) was 1% and the inhibition at 1 µM (MAPKAPK2) was 33%. For the same compound, the inhibition at 1 µM (TXK) was -9%, the inhibition at 1 µM (MARK2) was 6% and the inhibition at 1 µM (TEK (Tie2)) was 5%. The inhibition at 1 µM (LCK) was 4%, the inhibition at 1 µM (PRKG2 (PKG2)) was -4% and the inhibition at 1 µM (PRKCI (PKC iota)) was 5%. It also gave an inhibition at 1 µM (GRK7) of 5%, an inhibition at 1 µM (CDK1/cyclin B) of 3% and an inhibition at 1 µM (PRKCH (PKC eta)) of 21%.
